The text below walks through data of patent US10035810B2, “5,6-dihydro-4H-benzo[b]thieno-[2,3-d]azepine derivative” (PULMOCIDE LIMITED, priority 2014, dated 2018).

One test concerns RSV A2. The experiment in a line: Virus titre in air-liquid interface (ALI) cultured bronchial epithelial cells (plaque assay). The test is classed as cell-based, respiratory syncytial virus. As for the experimental part:
Assessment of Virus Titre in Air-Liquid Interface (ALI) Cultured Bronchial Epithelial Cells
ALI cultured human bronchial epithelial cells were sourced from Epithelix Sàrl (Geneva, Switzerland) and maintained by changing the basal media every 3-4 days, whilst the apical surface was washed once weekly with PBS. On day 0, the apical surface of each well was washed once with sterile PBS (300 μL) and the inserts were transferred to new 24-well plates containing fresh MucilAir culture medium (780 μL; EP04MM). RSV A2 (50 μL; diluted in MucilAir culture medium to give a final MOI of 0.01) was added to cells for 1 hr (37° C./5% CO2). For the purposes of standardizing MOI calculations, each MucilAir insert was estimated to contain 2×10^5 apical facing cells per well. Virus inoculum was removed with a pipette and inserts were washed twice with sterile PBS (300 μL).
Sampling was conducted by adding sterile PBS (300 μL) to the apical surface of each well for 5 min. The apical sample was then removed and transferred to tubes containing 50% sucrose dissolved in PBS (100 μL) before being stored at −80° C. This harvesting procedure was repeated daily beginning on day 0 and concluding on day 7. […]
Virus titre was quantified by plaque assay. […] Plaques were counted by eye and confirmed using light microscopy, allowing the calculation of plaque forming units per mL.

The test system of the next test is RSV A2 strain. The test is described as follows: RSV A2-induced CPE in HEp2 cells. In kind it is cell-based. The following applies: human respiratory syncytial virus. The protocol: Assessment of RSV Induced CPE in HEp2 Cells
HEp2 cells were seeded (10^3/well/50 μL) in 384-well plates (Catalogue number 353962, BD Falcon, Oxford, UK) in […] containing 2 mM L-glutamine and 1 mM sodium pyruvate one day before infection. RSV A2 strain (#0709161v, NCPV, Public Health England, Wiltshire) or RSV B Washington strain (VR-1580, ATCC, Manassas, Va. 20108) virus solutions were prepared in serum free-DMEM with 2 mM L-glutamine and 1 mM sodium pyruvate, and then added (50 μL/well) to achieve a final virus concentration of 1 MOI. Simultaneously Compound (I) (0.5 μL DMSO solution) was added to 100 μL of HEp2 cell culture with virus solution to provide a final DMSO solution of 0.5%. Plates were incubated (37° C./5% CO2) for 5 days for studies using RSV A2 strain or 6 days for those using RSV B strain, and then resazurin sodium salt (5 μL of 0.03% solution; Sigma-Aldrich, Dorset, UK) was added to each well and the plate incubated for a further 6 hr (37° C./5% CO2). The fluorescence of each well [545 nm (excitation)/590 nm (emission)] was determined using a multi-scanner (Clariostar: BMG, Buckinghamshire, UK). The percentage inhibition for each well was calculated and the IC50, IC75 and IC90 values were calculated from the concentration-response curve generated for Compound (I).

Structures are written as SMILES.

For `Cc1cnc(N2CC3(CCOCC3)C2)c(C(=O)Nc2ccc(C(=O)N3CCc4cc(C(=O)Nc5c(C)cccc5F)sc4-c4ccccc43)cc2)c1` [Compound (I), N-(2-fluoro-6-methylphenyl)-6-(4-(5-methyl-2-(7-oxa-2-azaspiro[3.5]nonan-2-yl)nicotinamido)benzoyl)-5,6-dihydro-4H-benzo[b]thieno[2,3-d]azepine-2-carboxamide], the “Inhibition of RSV titre in ALI culture (in words)” value with RSV A2 (early intervention, daily day 0 to day 7, 0.1 μg/mL, over 7 days) is given as “complete inhibition”. In addition, the “Virus titre in ALI culture (in words)” value with RSV A2 (late intervention, administered from day 3, days 6 and 7 post infection) is given as “dramatic reduction of virus titre”. Also, the IC50 with RSV A2 strain (HEp-2, 120 h, 1 MOI, 5 days) came out at 0.017 nM. 0.1 µg/mL produced 100% inhibition in the test on RSV A2 strain (HEp-2, at 0.1 μg/mL).

In general, IC50 refers to the concentration at which inhibition is half-maximal. The low end stands for inhibition by little substance, the high end for a need for much substance. As a reminder, the inhibition is the percentage by which the read-out fell short of the control. A low value points to a weak effect.
